Test results reported in patent US10294202B2, “Pyrrolidinones as herbicides” (FMC Corporation, priority 2013, dated 2019).

How the values were obtained:
rice = assay: Test C flooded paddy test; format: in vivo, Oryza sativa; conditions: Flood
Method in brief: (§1)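 Plants grown to the 2-leaf stage; pots flooded to 3 cm above soil and compound applied directly into the paddy water, depth kept throughout. Greenhouse 13 to 15 days, then visual rating vs untreated controls on 0–100 scale (0 no effect, 100 complete control); dash means no result.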

sedge, umbrella = assay: Test C flooded paddy test; format: in vivo, Cyperus difformis; conditions: Flood
Method in brief: as §1

barnyardgrass = assay: Test C flooded paddy test; format: in vivo, Echinochloa crus-galli; conditions: Flood
Method in brief: as §1

ryegrass, Italian = assay: Test A pre-/postemergence herbicide test; format: in vivo, Lolium multiflorum; conditions: for Plant response rating, Ryegrass, Italian: 0 to 100 scale
Method in brief: (§2)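 Formulated compound (non-phytotoxic solvent, surfactant) sprayed pre- onto soil of seeded loam/sand pots or post- onto seedlings at 1–2 leaves; ~10 d greenhouse; 0–100 visual control rating versus untreated.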

ducksalad = assay: Test C flooded paddy test; format: in vivo, Heteranthera limosa; conditions: Flood
Method in brief: as §1

chickweed = assay: Test C postemergence herbicide test; format: in vivo, Stellaria media
Method in brief: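 Greenhouse pot plants at 2 to 18 cm height (1- to 4-leaf stage) received a postemergence application of formulated test chemical. Visual ratings against untreated controls were made after 13 to 15 days, on a 0 (no effect) to 100 (complete control) scale.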

ragweed = assay: Test A pre-/postemergence herbicide test; format: in vivo, Ambrosia elatior; conditions: for Plant response rating, Ragweed: 0 to 100 scale
Method in brief: as §2

galium = assay: Test A postemergence herbicide test; format: in vivo, Galium aparine; conditions: for Plant response rating, Galium: 125 g ai/ha, 0 to 100 scale, 0 is no effect, 100 is complete control; for Galium plant response rating (0 to 100 scale, 0 is no effect, 100 is complete control): 500 g ai/ha
Method in brief: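 Injury was rated visually about 10 days after treatment on a 0 (no effect) to 100 (complete control) scale, compared with untreated plants. Test chemicals were sprayed postemergence onto greenhouse plants 2–10 cm high at one to two leaves, grown in a loam–sand blend.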

morningglory = assay: Test A pre-/postemergence herbicide test; format: in vivo, Ipomoea spp.
Method in brief: as §2

velvetleaf = assay: Test A pre-/postemergence herbicide test; format: in vivo, Abutilon theophrasti
Method in brief: as §2

crabgrass, large = assay: Test A pre-/postemergence herbicide test; format: in vivo, Digitaria sanguinalis
Method in brief: as §2

[1] = 125 g ai/ha, scale of 0 to 100 where 0 is no effect and 100 is complete control, 13 to 15 days
[2] = 250 g ai/ha, scale of 0 to 100 where 0 is no effect and 100 is complete control, 13 to 15 days
[3] = 125 g ai/ha, visual rating, 0 no effect, 100 complete control, approximately 10 days, preemergence
[4] = Postemergence, 125 g ai/ha, 0 is no effect, 100 is complete control
[5] = preemergence, 500 g ai/ha, 0 is no effect and 100 is complete control
[6] = 31 g ai/ha, scale 0 to 100 (0 no effect, 100 complete control)
[7] = 62 g ai/ha, scale 0 (no effect) to 100 (complete control)
[8] = 125 g ai/ha, scale 0 to 100 (0 no effect, 100 complete control)
[9] = 250 g ai/ha, scale 0 to 100 (0 no effect, 100 complete control)
[10] = 31 g ai/ha, scale of 0 to 100 where 0 is no effect and 100 is complete control, 13 to 15 days
[11] = 62 g ai/ha, scale of 0 to 100 where 0 is no effect and 100 is complete control, 13 to 15 days
[12] = Postemergence, 125 g ai/ha, 0 to 100 scale, 0 no effect, 100 complete control
[13] = Postemergence, 500 g ai/ha, 0 to 100 scale (0 no effect, 100 complete control)
[14] = Preemergence, 125 g ai/ha, visual rating on 0 to 100 scale (0 no effect, 100 complete control)
[15] = preemergence, 500 g ai/ha, 0 to 100 scale

## O=C1NC[C@H](c2cccc(C(F)(F)F)c2)[C@H]1C(=O)Nc1ccccc1F [Compound 204, (3R,4S)—N-(2-fluorophenyl)-2-oxo-4-[3-(trifluoromethyl)phenyl]-3-pyrrolidinecarboxamide]
rice; [1]
  Plant response rating, Rice: 0
rice; [2]
  Plant response rating, Rice: 0
rice; 500 g ai/ha, scale 0 to 100
  Plant response rating, Rice: 0
rice; 1000 g ai/ha, scale 0 to 100
  Plant response rating, Rice: 10
sedge, umbrella; [1]
  Plant response rating, Sedge, Umbrella: 0
sedge, umbrella; [2]
  Plant response rating, Sedge, Umbrella: 0
sedge, umbrella; 500 g ai/ha, scale 0 to 100
  Plant response rating, Sedge, Umbrella: 0
sedge, umbrella; 1000 g ai/ha, scale 0 to 100
  Plant response rating, Sedge, Umbrella: 0
barnyardgrass; [1]
  Plant response rating, Barnyardgrass: 50
barnyardgrass; [2]
  Plant response rating, Barnyardgrass: 70
barnyardgrass; 500 g ai/ha, scale 0 to 100
  Plant response rating, Barnyardgrass: 75
barnyardgrass; 1000 g ai/ha, scale 0 to 100
  Plant response rating, Barnyardgrass: 80
ryegrass, Italian; [3]
  Plant response rating, Ryegrass, Italian: 20
ryegrass, Italian; [4]
  Plant response rating, Ryegrass, Italian: 30
ryegrass, Italian; Postemergence, 500 g ai/ha
  Ryegrass, Italian plant response rating (0 to 100 scale, 0 is no effect, 100 is complete control): 50
ryegrass, Italian; [5]
  Plant response rating, Ryegrass, Italian: 50
ducksalad; [1]
  Plant response rating, Ducksalad: 50
ducksalad; [2]
  Plant response rating, Ducksalad: 95
ducksalad; 500 g ai/ha, scale 0 to 100
  Plant response rating, Ducksalad: 100
ducksalad; 1000 g ai/ha, scale 0 to 100
  Plant response rating, Ducksalad: 100
chickweed; [6]
  Plant response rating, Chickweed: 0
chickweed; [7]
  Plant response rating, Chickweed: 30
chickweed; [8]
  Plant response rating, Chickweed: 55
chickweed; [9]
  Plant response rating, Chickweed: 65
ragweed; [3]
  Plant response rating, Ragweed: 0
ragweed; [4]
  Plant response rating, Ragweed: 0
ragweed; Postemergence, 500 g ai/ha
  Ragweed plant response rating (0 to 100 scale, 0 is no effect, 100 is complete control): 0
ragweed; [5]
  Plant response rating, Ragweed: 80
galium
  Plant response rating, Galium: 50
  Galium plant response rating (0 to 100 scale, 0 is no effect, 100 is complete control): 60

## O=C1NCC(c2cccc(OC(F)F)c2)C1C(=O)Nc1cccc(F)c1F (stereo not shown) [Compound 224]
rice; [10]
  Plant response rating, Rice: 0
rice; [11]
  Plant response rating, Rice: 0
rice; [1]
  Plant response rating, Rice: 0
rice; [2]
  Plant response rating, Rice: 20
sedge, umbrella; [10]
  Plant response rating, Sedge, Umbrella: 0
sedge, umbrella; [11]
  Plant response rating, Sedge, Umbrella: 0
sedge, umbrella; [1]
  Plant response rating, Sedge, Umbrella: 0
sedge, umbrella; [2]
  Plant response rating, Sedge, Umbrella: 0
barnyardgrass; [10]
  Plant response rating, Barnyardgrass: 0
barnyardgrass; [11]
  Plant response rating, Barnyardgrass: 20
barnyardgrass; [1]
  Plant response rating, Barnyardgrass: 40
barnyardgrass; [2]
  Plant response rating, Barnyardgrass: 60
ryegrass, Italian; [3]
  Plant response rating, Ryegrass, Italian: 60
ryegrass, Italian; [4]
  Plant response rating, Ryegrass, Italian: 50
ryegrass, Italian; Postemergence, 500 g ai/ha
  Ryegrass, Italian plant response rating (0 to 100 scale, 0 is no effect, 100 is complete control): 60
ryegrass, Italian; [5]
  Plant response rating, Ryegrass, Italian: 70
ducksalad; [10]
  Plant response rating, Ducksalad: 0
ducksalad; [11]
  Plant response rating, Ducksalad: 40
ducksalad; [1]
  Plant response rating, Ducksalad: 80
ducksalad; [2]
  Plant response rating, Ducksalad: 100
chickweed; [6]
  Plant response rating, Chickweed: 70
chickweed; [7]
  Plant response rating, Chickweed: 70
chickweed; [8]
  Plant response rating, Chickweed: 70
chickweed; [9]
  Plant response rating, Chickweed: 85
ragweed; [3]
  Plant response rating, Ragweed: 90
ragweed; [4]
  Plant response rating, Ragweed: 40
ragweed; Postemergence, 500 g ai/ha
  Ragweed plant response rating (0 to 100 scale, 0 is no effect, 100 is complete control): 60
ragweed; [5]
  Plant response rating, Ragweed: 90
galium
  Plant response rating, Galium: 70
  Galium plant response rating (0 to 100 scale, 0 is no effect, 100 is complete control): 70

## O=C1NCC(c2ccc(Cl)c(F)c2)C1C(=O)Nc1cccc(F)c1F (stereo not shown) [Compound 52]
rice; [10]
  Plant response rating, Rice: 10
rice; [11]
  Plant response rating, Rice: 10
rice; [1]
  Plant response rating, Rice: 10
rice; 250 g ai/ha, scale 0 to 100
  Plant response rating, Rice: 15
sedge, umbrella; [10]
  Plant response rating, Sedge, Umbrella: 0
sedge, umbrella; [11]
  Plant response rating, Sedge, Umbrella: 40
sedge, umbrella; [1]
  Plant response rating, Sedge, Umbrella: 50
sedge, umbrella; 250 g ai/ha, scale 0 to 100
  Plant response rating, Sedge, Umbrella: 75
morningglory; [12]
  Plant response rating, Morningglory: 0
morningglory; [13]
  Plant response rating, Morningglory: 0
morningglory; [14]
  Morningglory plant response rating: 0
morningglory; [15]
  Plant response rating, Morningglory: 0
barnyardgrass; [10]
  Plant response rating, Barnyardgrass: 0
barnyardgrass; [11]
  Plant response rating, Barnyardgrass: 0
barnyardgrass; [1]
  Plant response rating, Barnyardgrass: 0
barnyardgrass; 250 g ai/ha, scale 0 to 100
  Plant response rating, Barnyardgrass: 0
velvetleaf; [12]
  Plant response rating, Velvetleaf: 0
velvetleaf; [13]
  Plant response rating, Velvetleaf: 0
velvetleaf; [14]
  Velvetleaf plant response rating: 0
velvetleaf; [15]
  Plant response rating, Velvetleaf: 20
crabgrass, large; [12]
  Plant response rating, Crabgrass, Large: 80
crabgrass, large; [13]
  Plant response rating, Crabgrass, Large: 80
crabgrass, large; [14]
  Crabgrass, Large plant response rating: 90
crabgrass, large; [15]
  Plant response rating, Crabgrass, Large: 90
ducksalad; [10]
  Plant response rating, Ducksalad: 40
ducksalad; [11]
  Plant response rating, Ducksalad: 40
ducksalad; [1]
  Plant response rating, Ducksalad: 75
ducksalad; 250 g ai/ha, scale 0 to 100
  Plant response rating, Ducksalad: 95
chickweed; 62 g ai/ha, scale 0 to 100 (0 no effect, 100 complete control)
  Plant response rating, Chickweed: 25
chickweed; [8]
  Plant response rating, Chickweed: 45
chickweed; [9]
  Plant response rating, Chickweed: 60
